# According to the COVID Moonshot data (paper PMC7615835):
# Several values for one entry are separate records, joined by “and”; a condition that tells them apart may be missing. Equal values may be shown once.
# Molecular target: SARS-CoV-2 Main Protease (SARS-CoV-2) (UniProt P0DTD1)
row,SMILES,IC50
1,CN1CCCN(c2ccc(N(C(=O)c3cocn3)C(C(=O)NCCc3cccc(F)c3)c3cccnc3)cc2)C1=O (stereo unspecified),61 µM
2,Cn1cnc2cc(N(C(=O)c3cnc[nH]3)C(C(=O)NCCc3cccc(F)c3)c3cccnc3)ccc21 (stereo unspecified),> 99 µM
3,O=C(Cc1cc(Cl)cc(Nc2cccc(Cl)c2Br)c1)Nc1cncc2ccccc12,1.94 µM
4,O=C(Cn1nnc2ccccc21)N(Cc1ccccc1)c1ccc(N2CCOCC2)cc1,19.8 µM
5,CC(C)(C)c1ccc(N(C(=O)c2cn3ccccc3n2)C(C(=O)NCCc2cccc(F)c2)c2cccnc2)cc1 (stereo unspecified),18.2 µM
6,Cn1cnnc1-c1cccc(NS(=O)(=O)c2c(Cl)nc3sccn23)c1,> 99.5 µM
7,Cc1c(NC(=O)C2CCOc3ccc(Cl)cc32)cncc1N(C)C (stereo unspecified),> 99.5 µM
8,Cc1cnn(C)c1C(=O)N1Cc2ccc(Cl)cc2C2(CCN(c3cncc4ccccc34)C2=O)C1 (stereo unspecified),0.683 µM
9,O=C(Cc1cc(Cl)cc(Nc2cc(Cl)c(F)c(Cl)c2)c1)Nc1cncc2ccccc12,1.85 µM
10,O=C(Cc1ccc(C(F)(F)F)cc1)Nc1cncc2ccccc12,24.8 µM
11,O=C(Cc1cccc(Cl)c1F)Nc1cncc2ccccc12,23.6 µM
12,Cc1nc2sccn2c1CN(C)C(=O)c1cn2ccccc2n1,> 99.5 µM
13,CN(C)c1ccc(N(Cc2ccccc2)C(=O)Cn2nnc3ccccc32)cc1,5.05 µM
14,C=CC(=O)N(c1cc(C(C)(C)C)on1)C(C(=O)NCCc1cccc(F)c1)c1cncc(C#N)c1 (stereo unspecified),> 99.5 µM
15,O=C(Cc1cccc(Cl)c1)NC1C(=O)NCc2ccccc21 (stereo unspecified),> 99.5 µM
16,O=C(Nc1cncc2ccccc12)C1CCN(Cc2cnc[nH]2)c2ccc(Cl)cc21 (stereo unspecified),1.12 µM
17,CC(C)CS(=O)(=O)N1Cc2ccc(Cl)cc2C(C(=O)Nc2cncc3ccccc23)C1 (stereo unspecified),0.107 µM
18,CN(C)C(=O)C[C@@]1(C(=O)Nc2cncc3ccccc23)CCOc2ccc(Cl)cc21 (stereo in doubt),20.5 µM
19,O=C(NCCc1cccc(F)c1)C(c1cccnc1)N(C(=O)c1ccco1)c1ccc(C2CCCC2)cc1 (stereo unspecified),0.282 µM
20,O=S(=O)(Nc1ccccc1SCc1cccc(Cl)c1F)c1cc(Cl)sc1Cl,2.23 µM
21,C=CC(=O)N(c1ccc2ncsc2c1)C(C(=O)Nc1cccc(CC)c1)c1cccnc1 (stereo unspecified),63.3 µM and 55 µM
22,CC(C)(C)c1ccc(N(C(=O)c2c[nH]c(=O)cn2)C(C(=O)NCCc2cccc(F)c2)c2cccnc2)cc1 (stereo unspecified),77.1 µM
23,CN1CCN(c2cncc3ccccc23)C(=O)C1c1cccc(Cl)c1 (stereo unspecified),2.21 µM
24,NS(=O)(=O)c1ccc(CNC(=O)CC2(C(=O)Nc3cncc4ccccc34)CCOc3ccc(Cl)cc32)cc1 (stereo unspecified),3.72 µM

row,SMILES,IC50
1,O=C(COC(=O)C1(c2ccccc2)CCC1)c1c[nH]c2ccccc12,> 99.5 µM
2,O=C(Cc1cc(Cl)cc(Nc2ccncc2I)c1)Nc1cncc2ccccc12,1.68 µM
3,O=C(CN1CC(C(=O)Nc2cncc3ccccc23)c2cc(Cl)ccc2C1=O)NC1CCC1 (stereo unspecified),0.129 µM
4,CN(C)C(=O)c1cc2c(NC(=O)C3CCOc4ccc(Cl)cc43)cncc2s1 (stereo unspecified),0.399 µM
5,CC(C(=O)NS(=O)(=O)c1cnn(-c2cccc(C(F)(F)F)c2)c1)n1cnc(C#N)n1 (stereo unspecified),> 99.5 µM
6,Cc1ccncc1NC(=O)Cc1cc(Cl)cc(NC2CC2C(F)(F)F)c1 (stereo unspecified),25.3 µM
7,CN(Cc1ccc(Cl)cc1)c1cc(Cl)cc(CC(=O)Nc2cncc3ccccc23)c1,2.42 µM
8,O=C(C1CCOc2cc(Cl)ccc21)N(Cc1c[nH]c(=O)[nH]c1=O)c1cncc2ccccc12 (stereo unspecified),7.14 µM
9,COc1ccccc1C(=O)N(c1ccc(C(C)(C)C)cc1)C(C(=O)NCCc1cccc(F)c1)c1cccnc1 (stereo unspecified),> 99.5 µM
10,O=C(Cc1cc(Cl)cc(Nc2c(F)cccc2Br)c1)Nc1cncc2ccccc12,3.39 µM
11,Cc1cccc2cncc(N3CCC4(CCOc5ccc(Cl)cc54)C3)c12 (stereo unspecified),> 99.5 µM
12,CN(c1cc(Cl)cc(CC(=O)Nc2cncc3ccccc23)c1)[C@@H]1CCN(Cc2ccccc2)C1 (stereo in doubt),2.04 µM
13,CN1CCCC(N(C(=O)c2cocn2)C(C(=O)NCCc2cccc(F)c2)c2cccnc2)C1 (stereo unspecified),> 99.5 µM
14,CC(C(=O)OC1CCCN(Cc2cccc(C(F)(F)F)c2)C1=O)n1cnc(C#N)n1 (stereo unspecified),8.45 µM and 10.2 µM
15,Cc1cccc(CN2CCN(c3nc4ccccc4nc3C)CC2)c1,> 99.5 µM
16,Cc1ccn2ncc(C(=O)Nc3ccc4[nH]c(C)cc(=O)c4c3)c2n1,> 99.5 µM
17,O=C(Cn1nnc2ccccc21)N(Cc1ccccn1)c1cnc(-c2ccccc2)nc1,> 99.5 µM
18,CC1(CS(=O)(=O)N2Cc3ccc(Cl)cc3C3(CCN(c4cncc5ccccc45)C3=O)C2)CS(=O)(=O)C1 (stereo unspecified),0.144 µM
19,CC(=O)N(CC(=O)Nc1ccc(F)c(Cl)c1)c1cccc(C(F)(F)F)c1,> 99.5 µM
20,CN1CCn2nc(C(=O)N(c3ccc(C(C)(C)C)cc3)C(C(=O)NCCc3cccc(F)c3)c3cccnc3)cc2S1(=O)=O (stereo unspecified),> 99.5 µM
21,COC1CC2(C1)CC(N(C(=O)c1cocn1)C(C(=O)NCCc1cccc(F)c1)c1cccnc1)C2 (stereo unspecified),> 99.5 µM
22,CC(C)S(=O)(=O)c1ccc(N(C(=O)c2cocn2)C(C(=O)NCCc2cccc(F)c2)c2cccnc2)cc1 (stereo unspecified),66.1 µM
23,CS(=O)(=O)c1ccc(O)c(Nc2cc(Cl)cc(CC(=O)Nc3cncc4ccccc34)c2)c1,7.61 µM
24,O=C(NNC(=O)c1cccc(-n2nccc2C(F)(F)F)c1)OCc1ccccc1,> 99.5 µM

row,SMILES,IC50
1,Cc1ccncc1C(C(=O)NCCc1cccc(F)c1)N(C(=O)c1ccco1)c1ccc(C(C)(C)C)cc1 (stereo unspecified),0.112 µM
2,O=C(Nc1cncc2ccccc12)C1CN(S(=O)(=O)C2COC2)Cc2ccc(Cl)cc21 (stereo unspecified),0.246 µM
3,O=C(Cc1cc(Cl)cc(Nc2ccc(C(F)(F)F)cc2)c1)Nc1cncc2ccccc12,2.06 µM
4,O=C(Cc1cc(Cl)cc(NCc2cccc(F)c2Cl)c1)Nc1cncc2ccccc12,2.22 µM
5,O=C(Nc1cncc2ccccc12)C1CN(S(=O)(=O)CC2(F)CC2)Cc2ccc(Cl)cc21 (stereo unspecified),0.176 µM
6,O=C(Cc1cccc(Cl)c1)NC1CC(=O)c2ccccc21 (stereo unspecified),53.8 µM
7,COc1ccc2nnn(CC(=O)N(Cc3ccccn3)c3ccc(C4CCNCC4)cc3)c2c1,38.8 µM
8,Cn1c(C(=O)N(c2ccc(C(C)(C)C)cc2)C(C(=O)NCCc2cccc(F)c2)c2cccnc2)c[nH]c1=O (stereo unspecified),> 99.5 µM
9,O=C(c1ccc2nc(C(F)F)[nH]c2c1)N1CCC(C2CCNC2)CC1 (stereo unspecified),> 99.5 µM
10,CNS(=O)(=O)N1CCc2ccc(Cl)cc2C1C(=O)Nc1cncc2ccccc12 (stereo unspecified),1.55 µM
11,Cc1ccncc1NC(=O)Cc1cc(Cl)cc(-c2ccc(C3(C)CCO3)cc2)c1 (stereo unspecified),8.95 µM
12,Cc1cccc2ncnc(NC(C)c3ccc4[nH]c(=O)[nH]c4c3)c12 (stereo unspecified),> 99.5 µM
13,Cc1nc2scc(C)n2c1CN1CCN(Cc2ccsc2)CC1,> 99.5 µM
14,Cc1cc(F)cc(Br)c1Nc1cc(Cl)cc(CC(=O)Nc2cncc3ccccc23)c1,2 µM
15,CS(=O)(=O)c1ccc2c(NC(=O)C3CN(CC(=O)NC4CC4)C(=O)c4ccc(Cl)cc43)cncc2c1 (stereo unspecified),0.214 µM
16,COC(=O)c1c(C)n(S(C)(=O)=O)c2ccc(N(C(=O)c3ccco3)S(C)(=O)=O)cc12,0.935 µM
17,CC(C)(C)c1ccc(N(C(=O)c2cocn2)C(C(=O)NCC(=O)Nc2cccc([N+](=O)[O-])c2)c2cccnc2)cc1 (stereo unspecified),14.4 µM
18,O=C(Cc1cc(Cl)cc(Nc2ccc3scnc3c2)c1)Nc1cncc2ccccc12,2.22 µM
19,COc1ccc2ncc(NC(=O)Cc3cccc(Cl)c3)n2c1,15.9 µM
20,CC(C)(C)c1ccc(O)c(Nc2cc(Cl)cc(CC(=O)Nc3cncc4ccccc34)c2)c1,6.5 µM
21,O=C(Cc1cc(Cl)cc(NC[C@H](O)c2ccc(O)cc2)c1)Nc1cncc2ccccc12 (stereo in doubt),1.64 µM
22,C[C@H]1C[C@@H](C(=O)Nc2cncc3ccccc23)c2cc(Cl)ccc2O1 (stereo in doubt),20.1 µM
23,CS(=O)(=O)c1ccc(N(C(=O)c2cocn2)C(C(=O)NCCc2cccc(F)c2)c2cccnc2)cc1 (stereo unspecified),75.9 µM
24,CN(c1cc(Cl)cc(CC(=O)Nc2cncc3ccccc23)c1)C(c1ccccc1)c1ccccc1,2.34 µM

row,SMILES,IC50
1,CCOC(=O)c1ncoc1CNC(=O)C(c1cccnc1)N(C(=O)c1cocn1)c1ccc(C(C)(C)C)cc1 (stereo unspecified),5.88 µM
2,Cc1ccc2nnc(CNc3ccc4nnc(C(F)(F)F)n4n3)n2c1,> 99.5 µM
3,O=C(NCCOc1ccccc1)c1cc(=O)[nH]c2ccccc12,> 99.5 µM
4,CC(O)Cc1c(C(=O)N(c2ccc(C(C)(C)C)cc2)C(C(=O)NCCc2cccc(F)c2)c2cccnc2)[nH][nH]c1=O (stereo unspecified),> 99.5 µM
5,Cn1ncc2c(NC(=O)Cc3cccc(Cl)c3)cncc21,34 µM
6,Cc1cc(C(F)(F)F)nc2n[nH]c(NC(=O)C3CCOc4ccc(Cl)cc43)c12 (stereo unspecified),26 µM
7,O=C(NCCc1cccc(F)c1)C(c1cccnc1)N(C(=O)c1cocn1)C1Cc2ccccc21 (stereo unspecified),> 99.5 µM
8,C=CC(=O)N(c1ccc(C(C)(C)C)cc1)C(C(=O)NCCc1cccc(F)c1)c1cccnc1 (stereo unspecified),2.96 µM
9,CCOC(=O)CCCNC(=O)C(c1cccnc1)N(C(=O)c1cocn1)c1ccc(C(C)(C)C)cc1 (stereo unspecified),6.24 µM
10,Cc1ccncc1NC(=O)Cc1cccc(-c2cn[nH]c2)c1,53.2 µM
11,CN(C)c1ccc(N(Cc2ccsc2)C(=O)Cn2nnc3ccccc32)cc1,1.79 µM
12,CC(C)(C)Oc1ccncc1NC(=O)Cc1cccc(Cl)c1,22.9 µM
13,CC(C)(C)c1ccc(N(C(=O)c2cnc(C3CCOC3)s2)C(C(=O)NCCc2cccc(F)c2)c2cccnc2)cc1 (stereo unspecified),> 99.5 µM
14,O=C1N(c2cncc3ccccc23)CCC12CN(Cc1nncs1)Cc1ccc(Cl)cc12 (stereo unspecified),0.263 µM
15,C=CC(=O)N(c1ccc(I)cc1)C(C(=O)Nc1ccc(Cl)cc1)c1cncnc1 (stereo unspecified),26.3 µM
16,O=C(Cc1cc(Cl)cc(Nc2c(Br)cncc2[N+](=O)[O-])c1)Nc1cncc2ccccc12,1.83 µM
17,Cc1ncc(CO)c(CNc2cc(Cl)cc(CC(=O)Nc3cncc4ccccc34)c2)c1O,9.11 µM
18,NS(=O)(=O)C1Cc2ccccc2N(CCNS(=O)(=O)c2ccccc2)C1 (stereo unspecified),> 99.5 µM
19,Cn1ncc2cc(C(=O)NNc3nc4cccnc4s3)cnc21,> 99.5 µM
20,O=C(Cc1cc(Cl)cc(N2CCC(O)(c3ccc(Cl)cc3)CC2)c1)Nc1cncc2ccccc12,5.21 µM
21,O=C(Cc1cc(Cl)cc(N2CCN(C(=O)[C@@H]3COc4ccccc4O3)CC2)c1)Nc1cncc2ccccc12 (stereo in doubt),2.74 µM
22,O=C(Cc1cccc(Cl)c1)NC1CCCNC1=O (stereo unspecified),> 99.5 µM
23,O=C(Nc1cncc2ccccc12)C12CC(C1)Oc1ccc(Cl)cc12,56.4 µM
24,O=C(NCCc1cccc(F)c1)C(c1cccnc1)N(C(=O)c1cnc[nH]1)c1ccc2c(c1)CCCS2(=O)=O (stereo unspecified),> 99 µM
